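Five compound concentrations were applied to cells in 96-well plates for 48 hours; endpoints were derived by simple linear interpolation of the resulting dose-response curve. GI50: concentration for 50% inhibition of growth. The concentration for full growth arrest is given as TGI.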
Legend:
Experiment in all cases: growth of human tumour cells (NCI), 48 h
SK-OV-3 ovarian = system: SK-OV-3 ovarian
HCT-116 colon = system: HCT-116 colon
UACC-257 melanoma = system: UACC-257 melanoma
HCT-15 colon = system: HCT-15 colon
OVCAR-8 ovarian = system: OVCAR-8 ovarian
A498 renal = system: A498 renal
RPMI-8226 leukemia = system: RPMI-8226 leukemia
A549 NSCLC = system: A549 NSCLC
MALME-3M melanoma = system: MALME-3M melanoma
SF-268 CNS = system: SF-268 CNS

Structure (SMILES) | TGI (SK-OV-3 ovarian) [µM] | TGI (HCT-116 colon) [µM] | TGI (UACC-257 melanoma) [µM] | TGI (HCT-15 colon) [µM] | TGI (OVCAR-8 ovarian) [µM] | TGI (A498 renal) [µM] | TGI (RPMI-8226 leukemia) [µM] | TGI (A549 NSCLC) [µM] | TGI (MALME-3M melanoma) [µM] | TGI (SF-268 CNS) [µM] | GI50 (SK-OV-3 ovarian) [µM] | GI50 (HCT-116 colon) [µM] | GI50 (UACC-257 melanoma) [µM] | GI50 (HCT-15 colon) [µM] | GI50 (OVCAR-8 ovarian) [µM] | GI50 (A498 renal) [µM] | GI50 (RPMI-8226 leukemia) [µM] | GI50 (SF-268 CNS) [µM] | GI50 (A549 NSCLC) [µM] | GI50 (MALME-3M melanoma) [µM]
CC1CC[P+](c2ccccc2)(c2ccccc2)CC1 | > 100 | > 100 | > 100 | > 100 | > 100 | > 100 | > 100 | > 100 | > 100 |  |  |  |  |  |  |  |  |  |  | 
COC[C@H](C)N=CN1CCc2ccccc2C1(Cc1ccccc1)Cc1ccccc1 | 30.6 | 29.7 | 28.3 | 39.1 | 28.8 |  | 38.9 | > 100 | 24.7 | 45.9 |  |  |  |  |  |  |  |  |  | 
COC(=O)C(/C(=N\NC(N)=S)C(=O)Nc1ccccc1[N+](=O)[O-])c1cnc2ccccc2n1 (configuration not stated) | > 100 | > 100 | > 100 | > 100 | > 100 | > 100 | > 100 | > 100 | > 100 | > 100 |  |  |  |  |  |  |  |  |  | 
COC(=O)[C@]12CC[C@@H](C)[C@H](C)[C@@H]1C1=CC[C@@H]3[C@@]4(C)C(C=O)=C[C@@](C)(COC(=O)/C=C/c5ccccc5)[C@@H]4[C@H](O)C[C@@]3(C)[C@]1(C)CC2 | 97.9 | 13.7 | 6.82 | 5.36 | 30.3 | 23.7 | 5.73 | 22 | 5.14 | 48.3 | 16.5 | 3.06 | 2.36 | 2.2 | 3.98 | 4.8 | 1.59 | 3.43 | 3.73 | 1.99
c1ccc2c(NCCCCCCNc3cccc4ccccc34)cccc2c1 | > 100 | > 100 | > 100 | > 100 | > 100 | > 100 | > 100 | > 100 | > 100 | > 100 |  |  |  |  |  |  |  |  |  | 
CCC[CH2][Pb]([Cl])([CH2]CCC)[CH2]CCC | 0.257 | 0.0345 | 0.157 | 0.0487 | 0.0464 | 0.148 | 0.0531 | 0.0936 | 0.0261 | 0.0677 | 0.12 | 0.0176 | 0.0589 | 0.0195 | 0.0206 | 0.0483 | 0.0157 | 0.0192 | 0.0264 | 0.00428
Nc1c(F)cc(-c2nc3cc(F)ccc3[se]2)cc1Br | 39.3 | 13 | > 100 | > 100 | > 100 | 36.9 | > 100 | > 100 | > 100 | > 100 | 2.31 | 0.025 | > 100 | 0.0476 | 42.1 | 5.4 |  | 29.4 | 0.137 | 25.3
CN(C)CCNC(=O)NC[C@H]1CC[C@@H]2[C@H](O1)c1cc(C(F)(F)F)ccc1N[C@H]2c1ccccc1 | 10 | 14.7 | 23.9 | 16.5 | > 100 | 10.5 | 8.48 | 17.4 | 22.4 | 39.6 | 0.0425 | 0.0414 | 10.5 | 1.02 | 0.233 | 0.196 | 0.163 | 0.589 | 0.175 | 0.582
